Reference: article PMC7572458, “Multiple mutations in the EPSPS and ALS genes of Amaranthus hybridus underlie resistance to glyphosate and ALS inhibitors” (Scientific Reports, 2020)

Key:
[1] = molecular target: T1, ALS (acetolactate synthase) (Amaranthus hybridus, UniProt A0A346FHL9); assay: acetoin colorimetric (creatine/naphthol, […] nm), crude leaf extract; format: biochemical; conditions: read-out: I50 (μM) ± SE
T1 construct: native, crude seedling leaf extract supernatant (15,000 g), not purified
T1 sequence (A0A346FHL9 81-669 limits assumed): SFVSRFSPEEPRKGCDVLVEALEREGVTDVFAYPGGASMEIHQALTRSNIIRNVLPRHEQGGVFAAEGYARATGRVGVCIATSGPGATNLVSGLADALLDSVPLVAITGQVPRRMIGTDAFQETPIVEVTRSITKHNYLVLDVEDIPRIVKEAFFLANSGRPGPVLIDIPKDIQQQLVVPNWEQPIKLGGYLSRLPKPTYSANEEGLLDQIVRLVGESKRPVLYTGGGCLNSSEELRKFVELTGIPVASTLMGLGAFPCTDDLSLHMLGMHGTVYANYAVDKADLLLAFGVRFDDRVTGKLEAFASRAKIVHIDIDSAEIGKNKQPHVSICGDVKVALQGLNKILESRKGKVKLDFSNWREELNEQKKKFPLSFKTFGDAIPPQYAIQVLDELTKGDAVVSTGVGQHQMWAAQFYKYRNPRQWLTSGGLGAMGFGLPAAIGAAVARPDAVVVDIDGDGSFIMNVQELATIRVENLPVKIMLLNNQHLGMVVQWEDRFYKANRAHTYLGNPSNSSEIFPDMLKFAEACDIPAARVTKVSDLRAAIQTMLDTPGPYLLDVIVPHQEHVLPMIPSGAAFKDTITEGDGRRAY

[2] = test system: T2, ALS (acetolactate synthase); assay: as above; format: biochemical, Amaranthus hybridus; conditions: MR2 population, zygosity not given; pyruvate, MgCl2, FAD, pH 7.5, 37 °C, 1 h; stated gain; read-out: I50 (μM) ± SE
T2 construct: native, crude seedling leaf extract supernatant (15,000 g), not purified

COc1cc(OC)nc(Oc2cccc(Oc3nc(OC)cc(OC)n3)c2C(=O)O)n1 [byspiribac]
IC50 [1]: 45.9 ± 8 µM
IC50 [2]: 2730 ± 80 µM

COc1ncc(F)c2nc(S(=O)(=O)Nc3c(F)cccc3F)nn12 [florasulam]
IC50 [1]: 17.4 ± 1.4 µM
IC50 [2]: 56.5 ± 9 µM

COc1nn(C(=O)NS(=O)(=O)c2ccccc2OC(F)(F)F)c(=O)n1C [flucarbazone]
IC50 [1]: 1 ± 0.1 µM
IC50 [2]: 145 ± 11.5 µM

COCc1cnc(C2=NC(C)(C(C)C)C(=O)N2)c(C(=O)O)c1 (stereo not shown) [imazamox]
IC50 [1]: 117 ± 9.1 µM
IC50 [2]: 3170 ± 112 µM

COC(=O)c1ccccc1S(=O)(=O)NC(=O)N(C)c1nc(C)nc(OC)n1 [tribenuron-methyl]
IC50 [1]: 47.5 ± 6.3 µM
IC50 [2]: 273 ± 26 µM
